In assay [1] the target is T1, Replicative DNA helicase DnaB (Mycobacterium tuberculosis, UniProt P9WMR3).
T1 sequence (P9WMR3 whole entry): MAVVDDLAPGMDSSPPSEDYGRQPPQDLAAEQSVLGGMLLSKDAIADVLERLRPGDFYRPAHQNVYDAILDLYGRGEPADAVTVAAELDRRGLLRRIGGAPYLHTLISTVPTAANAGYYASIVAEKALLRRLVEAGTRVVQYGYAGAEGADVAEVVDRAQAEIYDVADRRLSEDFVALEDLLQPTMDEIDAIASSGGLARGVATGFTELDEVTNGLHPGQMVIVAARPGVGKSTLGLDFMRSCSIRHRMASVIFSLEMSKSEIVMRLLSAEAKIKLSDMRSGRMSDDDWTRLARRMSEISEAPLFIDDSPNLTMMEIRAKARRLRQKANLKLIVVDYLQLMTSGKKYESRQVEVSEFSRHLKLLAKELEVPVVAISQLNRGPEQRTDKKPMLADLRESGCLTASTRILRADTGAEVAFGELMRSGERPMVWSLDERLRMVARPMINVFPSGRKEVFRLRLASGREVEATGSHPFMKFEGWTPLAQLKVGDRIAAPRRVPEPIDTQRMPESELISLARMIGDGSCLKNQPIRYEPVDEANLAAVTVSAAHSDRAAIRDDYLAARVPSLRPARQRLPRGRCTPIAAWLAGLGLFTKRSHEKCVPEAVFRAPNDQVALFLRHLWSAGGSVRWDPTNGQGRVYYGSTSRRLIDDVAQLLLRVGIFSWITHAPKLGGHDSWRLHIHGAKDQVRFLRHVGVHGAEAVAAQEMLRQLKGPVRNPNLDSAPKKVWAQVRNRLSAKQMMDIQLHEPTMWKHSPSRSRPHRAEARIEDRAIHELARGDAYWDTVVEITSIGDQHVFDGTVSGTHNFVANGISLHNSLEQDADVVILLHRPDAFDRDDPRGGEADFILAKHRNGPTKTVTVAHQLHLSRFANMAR
Kind of assay: DnaB intein splicing inhibitors, dose response, biochemical, cell-free fluorescence (AID 449749). The format is functional.

The target in assay [2] is T2, Histone-lysine N-methyltransferase NSD2 (Homo sapiens, UniProt O96028).
T2 sequence (O96028 whole entry): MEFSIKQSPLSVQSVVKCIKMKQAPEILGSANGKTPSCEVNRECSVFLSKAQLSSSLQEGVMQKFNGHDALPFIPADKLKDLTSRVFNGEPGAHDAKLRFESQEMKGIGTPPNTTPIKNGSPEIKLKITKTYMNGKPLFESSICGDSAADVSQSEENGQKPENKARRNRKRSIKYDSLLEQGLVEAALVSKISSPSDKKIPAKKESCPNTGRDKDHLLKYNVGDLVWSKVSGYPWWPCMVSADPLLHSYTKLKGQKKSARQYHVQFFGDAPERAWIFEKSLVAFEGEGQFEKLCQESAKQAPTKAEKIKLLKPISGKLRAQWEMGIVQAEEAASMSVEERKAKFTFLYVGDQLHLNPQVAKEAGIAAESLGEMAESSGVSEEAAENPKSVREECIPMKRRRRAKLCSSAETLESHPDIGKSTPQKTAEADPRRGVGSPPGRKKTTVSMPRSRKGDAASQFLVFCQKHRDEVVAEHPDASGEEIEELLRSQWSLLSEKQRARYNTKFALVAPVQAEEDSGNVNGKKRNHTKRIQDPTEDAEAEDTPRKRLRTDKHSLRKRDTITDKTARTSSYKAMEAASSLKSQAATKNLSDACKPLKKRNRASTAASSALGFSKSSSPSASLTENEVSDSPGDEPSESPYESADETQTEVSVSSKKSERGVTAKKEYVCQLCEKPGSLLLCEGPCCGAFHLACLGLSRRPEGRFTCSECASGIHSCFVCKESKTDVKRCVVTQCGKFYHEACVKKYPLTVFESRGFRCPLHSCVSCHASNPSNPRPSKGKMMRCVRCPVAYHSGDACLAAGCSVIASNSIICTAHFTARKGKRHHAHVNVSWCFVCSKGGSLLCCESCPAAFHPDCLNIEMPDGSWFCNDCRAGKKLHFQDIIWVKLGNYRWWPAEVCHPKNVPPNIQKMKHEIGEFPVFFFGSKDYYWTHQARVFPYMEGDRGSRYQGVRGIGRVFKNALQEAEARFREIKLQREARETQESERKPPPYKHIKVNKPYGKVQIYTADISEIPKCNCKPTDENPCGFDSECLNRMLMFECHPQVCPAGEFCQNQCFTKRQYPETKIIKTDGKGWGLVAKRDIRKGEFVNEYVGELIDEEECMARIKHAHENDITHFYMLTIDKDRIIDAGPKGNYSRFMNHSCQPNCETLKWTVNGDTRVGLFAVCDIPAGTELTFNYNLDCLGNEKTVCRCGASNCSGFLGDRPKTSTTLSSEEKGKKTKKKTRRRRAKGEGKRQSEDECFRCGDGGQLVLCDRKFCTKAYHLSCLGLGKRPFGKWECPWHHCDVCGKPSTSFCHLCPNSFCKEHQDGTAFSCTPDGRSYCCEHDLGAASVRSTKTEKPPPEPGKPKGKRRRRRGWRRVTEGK
The assay is classed as biochemical.

In assay [3] the target is Serine/threonine-protein kinase TBK1 (Homo sapiens, UniProt Q9UHD2). The assay is described as follows: Navigating the Kinome. Panel member name: TBK1. The assay is classed as functional.
For assay [4], the target named is RAC-gamma serine/threonine-protein kinase (Homo sapiens, UniProt Q9Y243). The assay is classed as functional.
Assay [5] has as its target Serine/threonine-protein kinase D3 (Homo sapiens, UniProt O94806). The assay is classed as functional.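 Also: determined within a kinase panel screen, with PRKCN as the panel member.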
In assay [6] the target is Serine/threonine-protein kinase Chk2 (Homo sapiens, UniProt O96017). The format is functional.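 Also: CHEK2 entry within a kinome-wide screening panel.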
In another assay the target is SRSF protein kinase 1 (Homo sapiens, UniProt Q96SB4). The assay is classed as functional.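 Also: measured as one member of a kinome-wide kinase profiling panel.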
Assay [7] has as its target Tyrosine-protein kinase Lyn (Homo sapiens, UniProt P07948). The format is functional.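 Also: lyn as one member of a kinase panel.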
For assay [8], the target named is Serine/threonine-protein kinase TAO1 (Homo sapiens, UniProt Q7L7X3). The format is functional.
The target in assay [9] is Non-receptor tyrosine-protein kinase TYK2 (Homo sapiens, UniProt P29597). The assay is classed as functional.
Assay [10] addresses Serine/threonine-protein kinase SIK2 (Homo sapiens, UniProt Q9H0K1). The assay is described as follows: Navigating the Kinome. Panel member name: SIK2. The assay is classed as functional.
Assay [11] deals with Mitogen-activated protein kinase 1 (Homo sapiens, UniProt P28482). The assay is classed as functional.
The target in assay [12] is Homeodomain-interacting protein kinase 4 (Homo sapiens, UniProt Q8NE63). The format is functional.
For assay [13], the target named is BDNF/NT-3 growth factors receptor (Homo sapiens, UniProt Q16620). The format is functional.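 Also: NTRK2 measured as one member of a broad kinome-wide kinase profiling panel.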
Assay [14] deals with Serine/threonine-protein kinase MRCK alpha (Homo sapiens, UniProt Q5VT25). The assay is classed as functional.

The source made the active and inactive calls.

Chain of Tyrosine-protein kinase Lyn (P07948 whole entry): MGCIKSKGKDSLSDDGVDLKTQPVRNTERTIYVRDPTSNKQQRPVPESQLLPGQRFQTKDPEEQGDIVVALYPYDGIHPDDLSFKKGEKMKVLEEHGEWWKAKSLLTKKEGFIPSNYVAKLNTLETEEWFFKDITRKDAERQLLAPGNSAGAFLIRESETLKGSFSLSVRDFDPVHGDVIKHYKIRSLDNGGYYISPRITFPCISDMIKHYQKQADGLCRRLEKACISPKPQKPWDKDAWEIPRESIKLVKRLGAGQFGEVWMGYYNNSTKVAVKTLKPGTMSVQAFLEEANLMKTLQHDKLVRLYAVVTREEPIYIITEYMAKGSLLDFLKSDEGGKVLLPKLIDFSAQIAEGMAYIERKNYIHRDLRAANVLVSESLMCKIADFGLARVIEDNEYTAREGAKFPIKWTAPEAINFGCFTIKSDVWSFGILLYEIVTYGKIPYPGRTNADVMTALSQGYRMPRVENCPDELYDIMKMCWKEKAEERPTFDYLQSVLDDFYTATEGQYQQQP
Chain of RAC-gamma serine/threonine-protein kinase (Q9Y243 whole entry): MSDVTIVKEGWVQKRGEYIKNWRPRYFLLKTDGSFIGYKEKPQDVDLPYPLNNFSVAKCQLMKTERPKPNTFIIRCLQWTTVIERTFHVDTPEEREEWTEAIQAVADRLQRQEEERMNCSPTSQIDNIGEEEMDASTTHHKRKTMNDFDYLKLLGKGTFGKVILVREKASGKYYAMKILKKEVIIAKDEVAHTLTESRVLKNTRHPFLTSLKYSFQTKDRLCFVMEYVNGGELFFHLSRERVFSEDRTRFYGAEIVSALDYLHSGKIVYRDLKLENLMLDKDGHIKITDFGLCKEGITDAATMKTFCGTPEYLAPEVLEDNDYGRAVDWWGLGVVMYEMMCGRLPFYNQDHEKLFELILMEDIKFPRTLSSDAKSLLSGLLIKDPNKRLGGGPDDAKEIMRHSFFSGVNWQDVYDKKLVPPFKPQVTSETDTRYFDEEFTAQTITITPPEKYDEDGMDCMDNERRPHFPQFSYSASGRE
Chain of Homeodomain-interacting protein kinase 4 (Q8NE63 whole entry): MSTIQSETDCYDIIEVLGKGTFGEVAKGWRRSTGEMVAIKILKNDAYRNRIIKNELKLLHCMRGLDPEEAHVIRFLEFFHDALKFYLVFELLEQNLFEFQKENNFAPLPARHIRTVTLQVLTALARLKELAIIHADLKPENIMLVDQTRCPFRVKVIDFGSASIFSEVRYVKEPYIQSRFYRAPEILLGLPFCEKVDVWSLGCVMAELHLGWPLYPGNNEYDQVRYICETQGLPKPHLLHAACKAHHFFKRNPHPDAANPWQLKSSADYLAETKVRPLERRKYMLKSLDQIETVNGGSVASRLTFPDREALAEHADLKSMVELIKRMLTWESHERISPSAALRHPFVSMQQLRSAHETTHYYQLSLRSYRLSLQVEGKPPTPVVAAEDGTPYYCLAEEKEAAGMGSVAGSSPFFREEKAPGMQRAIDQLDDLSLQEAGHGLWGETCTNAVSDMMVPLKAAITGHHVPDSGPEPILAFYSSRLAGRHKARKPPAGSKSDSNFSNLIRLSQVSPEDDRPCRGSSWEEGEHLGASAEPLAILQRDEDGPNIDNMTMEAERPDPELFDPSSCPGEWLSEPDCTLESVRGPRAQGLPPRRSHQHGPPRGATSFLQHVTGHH
Chain of SRSF protein kinase 1 (Q96SB4 whole entry): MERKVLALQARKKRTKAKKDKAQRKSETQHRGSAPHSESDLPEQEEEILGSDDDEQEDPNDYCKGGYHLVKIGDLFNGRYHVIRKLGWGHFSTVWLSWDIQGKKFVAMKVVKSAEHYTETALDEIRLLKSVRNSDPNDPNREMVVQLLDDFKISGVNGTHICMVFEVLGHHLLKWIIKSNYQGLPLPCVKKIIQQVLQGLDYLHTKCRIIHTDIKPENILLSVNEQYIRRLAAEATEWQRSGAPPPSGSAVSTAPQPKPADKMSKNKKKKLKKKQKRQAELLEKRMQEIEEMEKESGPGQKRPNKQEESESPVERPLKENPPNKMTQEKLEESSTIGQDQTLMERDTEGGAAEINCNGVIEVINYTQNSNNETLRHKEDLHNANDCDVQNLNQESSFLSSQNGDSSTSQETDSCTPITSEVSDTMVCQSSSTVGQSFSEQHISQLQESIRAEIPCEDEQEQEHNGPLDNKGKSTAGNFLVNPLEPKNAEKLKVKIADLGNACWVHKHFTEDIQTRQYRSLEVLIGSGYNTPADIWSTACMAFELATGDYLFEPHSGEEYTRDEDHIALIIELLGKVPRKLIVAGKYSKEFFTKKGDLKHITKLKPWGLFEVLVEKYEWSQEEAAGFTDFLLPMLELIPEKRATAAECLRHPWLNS
Chain of Serine/threonine-protein kinase Chk2 (O96017 whole entry): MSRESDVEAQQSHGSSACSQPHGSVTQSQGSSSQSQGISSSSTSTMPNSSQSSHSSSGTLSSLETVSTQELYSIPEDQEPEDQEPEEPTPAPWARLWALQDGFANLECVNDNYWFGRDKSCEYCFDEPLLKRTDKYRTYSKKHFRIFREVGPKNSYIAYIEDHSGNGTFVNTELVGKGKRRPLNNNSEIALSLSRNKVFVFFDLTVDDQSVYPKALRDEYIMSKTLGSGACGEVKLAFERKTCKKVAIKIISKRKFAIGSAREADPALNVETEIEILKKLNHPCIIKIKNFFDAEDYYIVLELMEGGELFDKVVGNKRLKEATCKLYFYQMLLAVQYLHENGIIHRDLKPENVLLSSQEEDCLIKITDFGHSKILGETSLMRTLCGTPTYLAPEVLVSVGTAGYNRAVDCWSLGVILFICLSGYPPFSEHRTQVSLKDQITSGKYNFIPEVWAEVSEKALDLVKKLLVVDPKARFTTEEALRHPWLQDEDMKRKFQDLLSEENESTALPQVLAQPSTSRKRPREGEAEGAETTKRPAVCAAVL
Chain of BDNF/NT-3 growth factors receptor (Q16620 whole entry): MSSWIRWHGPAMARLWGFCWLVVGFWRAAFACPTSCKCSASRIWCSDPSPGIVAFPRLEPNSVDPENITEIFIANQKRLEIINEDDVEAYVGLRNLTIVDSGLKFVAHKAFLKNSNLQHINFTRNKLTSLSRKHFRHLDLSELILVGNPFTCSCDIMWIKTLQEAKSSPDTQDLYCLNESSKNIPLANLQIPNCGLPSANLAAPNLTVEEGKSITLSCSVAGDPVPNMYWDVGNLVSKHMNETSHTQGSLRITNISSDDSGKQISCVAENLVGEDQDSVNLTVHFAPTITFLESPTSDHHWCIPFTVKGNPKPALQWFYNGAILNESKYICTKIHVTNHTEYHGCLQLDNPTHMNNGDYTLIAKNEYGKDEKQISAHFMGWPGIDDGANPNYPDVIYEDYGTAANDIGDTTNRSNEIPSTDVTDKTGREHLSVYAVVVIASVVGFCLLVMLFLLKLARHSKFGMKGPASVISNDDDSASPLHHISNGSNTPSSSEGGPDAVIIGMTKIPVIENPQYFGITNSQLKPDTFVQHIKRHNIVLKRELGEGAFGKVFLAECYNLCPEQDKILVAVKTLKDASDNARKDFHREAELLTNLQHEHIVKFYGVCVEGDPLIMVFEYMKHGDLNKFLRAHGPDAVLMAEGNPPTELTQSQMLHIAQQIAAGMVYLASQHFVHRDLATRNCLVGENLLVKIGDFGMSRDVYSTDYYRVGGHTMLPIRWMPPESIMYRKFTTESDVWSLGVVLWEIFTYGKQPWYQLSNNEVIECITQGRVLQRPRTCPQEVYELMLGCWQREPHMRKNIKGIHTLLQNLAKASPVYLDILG
Chain of Mitogen-activated protein kinase 1 (P28482 whole entry): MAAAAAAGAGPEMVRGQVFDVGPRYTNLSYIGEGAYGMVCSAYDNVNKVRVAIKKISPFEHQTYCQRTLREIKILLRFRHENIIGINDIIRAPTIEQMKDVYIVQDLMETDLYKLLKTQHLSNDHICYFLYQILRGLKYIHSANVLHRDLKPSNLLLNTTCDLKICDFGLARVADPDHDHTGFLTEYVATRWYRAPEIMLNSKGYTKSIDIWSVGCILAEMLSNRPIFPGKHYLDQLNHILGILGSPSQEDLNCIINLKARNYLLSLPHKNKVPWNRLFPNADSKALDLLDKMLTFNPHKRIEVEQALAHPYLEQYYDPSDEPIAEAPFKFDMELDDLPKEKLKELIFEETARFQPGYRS
Chain of Serine/threonine-protein kinase TAO1 (Q7L7X3 whole entry): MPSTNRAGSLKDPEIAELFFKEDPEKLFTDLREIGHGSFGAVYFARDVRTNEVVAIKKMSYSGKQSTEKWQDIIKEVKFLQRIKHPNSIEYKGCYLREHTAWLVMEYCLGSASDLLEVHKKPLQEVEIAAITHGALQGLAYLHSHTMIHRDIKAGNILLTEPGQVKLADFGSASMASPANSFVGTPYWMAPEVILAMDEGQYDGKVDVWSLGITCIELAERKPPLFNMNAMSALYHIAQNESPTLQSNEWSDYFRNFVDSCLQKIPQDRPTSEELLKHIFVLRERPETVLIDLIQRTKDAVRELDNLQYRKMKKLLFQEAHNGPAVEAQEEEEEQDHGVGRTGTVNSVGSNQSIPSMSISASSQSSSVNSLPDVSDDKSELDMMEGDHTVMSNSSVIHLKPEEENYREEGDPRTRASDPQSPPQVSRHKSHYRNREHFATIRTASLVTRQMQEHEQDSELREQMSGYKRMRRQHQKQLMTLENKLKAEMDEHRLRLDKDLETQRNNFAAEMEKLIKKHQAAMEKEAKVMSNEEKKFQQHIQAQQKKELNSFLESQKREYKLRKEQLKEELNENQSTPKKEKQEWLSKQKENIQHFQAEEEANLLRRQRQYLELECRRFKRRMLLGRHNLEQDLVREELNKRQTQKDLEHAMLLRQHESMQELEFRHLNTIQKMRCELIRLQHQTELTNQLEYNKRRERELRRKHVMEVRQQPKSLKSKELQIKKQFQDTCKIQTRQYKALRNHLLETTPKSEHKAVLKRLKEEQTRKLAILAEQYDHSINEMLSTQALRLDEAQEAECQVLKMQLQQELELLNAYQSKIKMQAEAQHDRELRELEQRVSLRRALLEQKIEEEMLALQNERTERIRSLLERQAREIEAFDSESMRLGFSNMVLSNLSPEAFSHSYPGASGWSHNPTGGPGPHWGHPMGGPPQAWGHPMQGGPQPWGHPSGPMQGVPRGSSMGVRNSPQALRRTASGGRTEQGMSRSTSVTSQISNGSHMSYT

For `CCCn1nc([N+](=O)[O-])c(C(C#N)c2nc3ccccc3s2)c(Cl)c1=O` (stereo not given), the values for the AC50 in assay [1] and in assay [2] were 4.72 µM (active) and > 20 µM (inactive), respectively.
In the case of `NCCCn1cc(-c2cc(-c3cc4ccccc4s3)c3[nH]ncc3c2)c2nc(N)ncc21`, the Ki – broadly, the dissociation constant of the complex between target and ligand, obtained from inhibition or displacement – in assay [3] is > 1.58 µM (inactive); in [4] it was 251 nM (active); in [5], 398 nM (active); in [6], 20 nM (active); at SRSF protein kinase 1, 2 µM (active); in assay [7], > 1.58 µM (inactive). For the same compound, the Ki in assay [8] is > 5.01 µM (inactive); in assay [9] it was > 2 µM (inactive); in assay [10] it was 251 nM (active); in assay [11], 5.01 µM (active); in [12] it was 501 nM (active); in assay [13], > 3.98 µM (inactive). The Ki in [14] was 631 nM (active).

(Values after ChEMBL document CHEMBL1201862, “PubChem BioAssay data set” (2004).)
